Experimental data: ChEMBL document CHEMBL4699540, “Discovery and structure activity relationships of 7-benzyl triazolopyridines as stable, selective, and reversible inhibitors of myeloperoxidase” (Bioorg Med Chem, 2020); call rule not given here

How the values were obtained:
Cytochrome P450 2B6 = target: T1, Cytochrome P450 2B6 (Homo sapiens, UniProt P20813); assay: Inhibition of CYP2B6 (unknown origin); assay type: ADME
T1 sequence (P20813 whole entry): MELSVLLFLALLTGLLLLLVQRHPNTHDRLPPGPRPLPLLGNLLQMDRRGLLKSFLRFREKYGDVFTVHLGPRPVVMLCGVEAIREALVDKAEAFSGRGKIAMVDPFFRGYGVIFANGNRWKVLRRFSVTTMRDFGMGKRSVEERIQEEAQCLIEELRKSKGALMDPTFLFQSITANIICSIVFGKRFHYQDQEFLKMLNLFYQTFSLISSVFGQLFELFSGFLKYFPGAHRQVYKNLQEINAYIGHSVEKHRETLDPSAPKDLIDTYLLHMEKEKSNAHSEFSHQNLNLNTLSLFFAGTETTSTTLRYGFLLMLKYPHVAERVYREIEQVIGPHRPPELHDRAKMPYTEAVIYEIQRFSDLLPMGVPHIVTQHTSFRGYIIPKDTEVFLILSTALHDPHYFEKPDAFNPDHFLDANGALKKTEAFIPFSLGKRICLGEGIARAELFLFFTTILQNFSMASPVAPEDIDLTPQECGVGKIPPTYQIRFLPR

animal or person = conditions: Mus musculus, po, 6 h, read-out: INH
Cytochrome P450 2D6 = Cytochrome P450 2D6 (Homo sapiens, UniProt P10635); assay: Inhibition of CYP2D6 (unknown origin); assay type: ADME
Chain of Cytochrome P450 2D6 (P10635 whole entry): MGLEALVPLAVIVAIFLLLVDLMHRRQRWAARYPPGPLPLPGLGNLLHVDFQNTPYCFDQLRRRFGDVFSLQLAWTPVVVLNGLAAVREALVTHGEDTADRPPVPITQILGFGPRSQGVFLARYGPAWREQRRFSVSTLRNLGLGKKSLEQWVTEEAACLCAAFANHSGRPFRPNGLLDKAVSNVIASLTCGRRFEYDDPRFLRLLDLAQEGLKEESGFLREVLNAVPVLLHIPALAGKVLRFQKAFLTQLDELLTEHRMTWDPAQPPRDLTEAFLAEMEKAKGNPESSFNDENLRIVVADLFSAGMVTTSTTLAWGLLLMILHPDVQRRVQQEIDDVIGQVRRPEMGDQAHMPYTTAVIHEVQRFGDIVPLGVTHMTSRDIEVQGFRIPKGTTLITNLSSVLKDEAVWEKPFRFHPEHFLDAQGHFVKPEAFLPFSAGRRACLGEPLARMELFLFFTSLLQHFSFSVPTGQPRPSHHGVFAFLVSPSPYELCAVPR

Cytochrome P450 1A2 = target: T2, Cytochrome P450 1A2 (Homo sapiens, UniProt P05177); assay: Inhibition of CYP1A2 (unknown origin); assay type: ADME
T2 sequence (P05177 whole entry): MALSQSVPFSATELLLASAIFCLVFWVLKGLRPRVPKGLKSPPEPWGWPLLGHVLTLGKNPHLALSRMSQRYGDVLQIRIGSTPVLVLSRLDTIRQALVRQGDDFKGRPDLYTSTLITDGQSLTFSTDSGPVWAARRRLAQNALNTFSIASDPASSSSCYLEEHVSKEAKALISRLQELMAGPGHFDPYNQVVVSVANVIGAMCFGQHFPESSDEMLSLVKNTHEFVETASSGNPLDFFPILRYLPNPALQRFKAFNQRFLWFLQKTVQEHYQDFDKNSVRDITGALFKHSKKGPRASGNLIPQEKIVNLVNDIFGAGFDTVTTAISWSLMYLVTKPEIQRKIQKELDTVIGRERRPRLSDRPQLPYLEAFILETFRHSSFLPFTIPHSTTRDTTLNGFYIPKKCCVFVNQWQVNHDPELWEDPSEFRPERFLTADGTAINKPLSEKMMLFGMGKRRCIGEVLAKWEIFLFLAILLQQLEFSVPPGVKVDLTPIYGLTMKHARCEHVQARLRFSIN

[1] = Half life in CD-1 mouse at 3 mg/kg, po by LC/MS analysis; assay type: ADME, organism-based; conditions: in vivo
[2] = Protein binding in human plasma assessed as free fraction; assay type: ADME, cell-free
[3] = Binding affinity to human neutrophil MPO delta (1-95) measured for 5 mins by SPR assay
Myeloperoxidase = target: T3, Myeloperoxidase (Mus musculus, UniProt P11247); assay: Inhibition of PMA-induced MPO in mouse Neutrophil incubated for 3 mins by luminometry; assay type: tissue-based
T3 sequence (P11247 whole entry): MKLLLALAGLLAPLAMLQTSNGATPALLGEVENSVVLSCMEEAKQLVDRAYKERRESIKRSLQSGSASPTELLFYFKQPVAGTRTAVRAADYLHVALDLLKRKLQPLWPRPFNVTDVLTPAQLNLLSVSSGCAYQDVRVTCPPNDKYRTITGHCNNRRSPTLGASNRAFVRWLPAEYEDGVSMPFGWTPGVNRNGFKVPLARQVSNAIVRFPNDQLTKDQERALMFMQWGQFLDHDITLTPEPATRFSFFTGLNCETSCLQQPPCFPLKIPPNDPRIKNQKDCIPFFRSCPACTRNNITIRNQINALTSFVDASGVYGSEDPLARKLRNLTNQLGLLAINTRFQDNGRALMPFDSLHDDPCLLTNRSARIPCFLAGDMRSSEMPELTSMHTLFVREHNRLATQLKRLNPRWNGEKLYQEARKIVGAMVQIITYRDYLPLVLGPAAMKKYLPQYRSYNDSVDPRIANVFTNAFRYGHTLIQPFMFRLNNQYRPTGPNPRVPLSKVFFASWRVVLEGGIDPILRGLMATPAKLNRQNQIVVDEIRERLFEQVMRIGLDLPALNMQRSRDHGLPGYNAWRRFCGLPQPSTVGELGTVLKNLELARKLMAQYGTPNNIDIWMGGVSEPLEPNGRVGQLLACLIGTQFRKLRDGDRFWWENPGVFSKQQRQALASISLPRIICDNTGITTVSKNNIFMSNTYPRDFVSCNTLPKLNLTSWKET

[4] = Permeability of compound at pH 7.4 by PAMPA assay; assay type: ADME; conditions: read-out: permeability
[5] = Plasma concentration in human MPO transgenic thioglycollate-induced peritonitis mouse model at 30 mg/kg, po measured after 6 hrs by LC/MS analysis; assay type: ADME, organism-based
[6] = target: T4, Methylated-DNA--protein-cysteine methyltransferase (Homo sapiens, UniProt P16455); assay: Inhibition of human MGMT using 06-benzylguanine as substrate incubated for 30 mins by LC/MS analysis; conditions: 0.5 h
T4 sequence (P16455 whole entry): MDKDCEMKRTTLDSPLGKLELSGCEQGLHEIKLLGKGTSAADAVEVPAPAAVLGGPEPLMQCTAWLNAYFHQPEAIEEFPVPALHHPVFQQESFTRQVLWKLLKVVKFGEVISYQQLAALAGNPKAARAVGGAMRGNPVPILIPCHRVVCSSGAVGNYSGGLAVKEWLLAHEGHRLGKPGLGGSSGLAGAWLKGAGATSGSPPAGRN

[7] = Plasma concentration in human MPO transgenic thioglycollate-induced peritonitis mouse model at 10 mg/kg, po measured after 6 hrs by LC/MS analysis; assay type: ADME, organism-based

IC50 (Cytochrome P450 2B6): > 10 µM
IC50 (Cytochrome P450 2D6): > 10 µM
IC50 (Cytochrome P450 1A2): > 10 µM
half-life [1]: 2 h
fraction unbound [2]: 0.17
IC50 (Myeloperoxidase): 9.5 µM
Papp [4]: 31.3 ×10⁻⁶ cm/s
concentration at 6 h [5]: 26 µM
inhibition (INH) [6]: Not Active
concentration at 6 h [7]: 7 µM
SMILES: Nc1cc(Cc2ccccc2)c2nn[nH]c2n1
inhibition in vivo at 30 mg/kg (animal or person): 55%
Kd [3]: 0.032 µM
